# Experimental data from patent publication US20250032411A1, “A SELF-EMULSIFYING DRUG DELIVERY SYSTEM (SEDDS) OF PUNICIC ACID COMBINED WITH NEUROPROTECTIVE NATURAL PRODUCTS TO DELAY ONSET, PREVENT, OR REVERSE NEURODEGENERATIVE DISEASE” (TAHIRO INC., priority 2021, published 2025).
# Experiments:
# [1] = test system: C57BL6 mice; assay: Y-maze Test of MK-801 induced cognitive decline; assay type: in vivo; conditions: N=12 per group, random = 33%
# Experimental: The effect of pomegranate-CBD based formulation with a 12:1 pomegranate to CBD ratio on cognitive decline was further evaluated in C57BL6 mice. The cognitive decline of the mice was achieved using MK-801 and the cognitive ability of the mice were tested using the Y-maze Test. The experiment included three groups of mice, neutral control (N=12), MK-801 (N=12), MK-801 Pomegranate-CBD treated (N=12).
# [2] = test system: mThyl-human alpha-synuclein transgenic mouse model; conditions: 1 g/kg/day interperitoneally; cited from earlier work
# [3] = target: alfa-synuclein (Homo sapiens, UniProt P37840); conditions: in vitro; cited from earlier work
# [4] = test system: Parkinson's disease patients; conditions: 18 g per day oral, cited from earlier work
# [5] = test system: Drosophila model of Parkinson's Disease; conditions: fly feeding, 75 mM in medium; cited from earlier work
# [6] = test system: old mice; conditions: chronic low dose, 3 mg per kg bodyweight per day; cited from earlier work
structure (smiles),measurement,setting,value
C[C@]12N[C@H](Cc3ccccc31)c1ccccc12 [MK-801],% of entries in the novel arm of the Y-maze,[1],31.8%
OC[C@@H](O)[C@@H](O)[C@H](O)[C@H](O)CO [Mannitol],alpha-synuclein accumulation in brain regions,[2],a decrease in alpha-synuclein accumulation was detected in several brain regions
same,aggregation process of alfa-synuclein,[3],interfere with the aggregation process of alfa-synuclein
same,patients who tolerate the maximal dose,[4]; 36 weeks,only two thirds of patients tolerate this maximal dose
same,safety of long-term use,[4],safe
same,alpha-synuclein aggregates in the brains,[5],reduced the amount of alpha-synuclein aggregates
same,behavioral defects,[5],dramatically corrected behavioral defects
"CCCCCc1cc(O)c2c(c1)OC(C)(C)[C@@H]1CCC(C)=C[C@@H]21 [THC, Δ9-tetrahydrocannabinol]",cognitive function,[6],restores cognitive function in old mice
